In patent publication US6346258B1, “Physiological combination of active substances to enhance the skin's defenses against noxious agents” (priority 1997, dated 2002):

Test system: chorioallantoic membrane
Assay: hen's egg test on the chorioallantoic membrane (HET-CAM): protective effect against the irritant 2% sodium dodecylsulfate
Design: species or system hen's eggs, American White Leghorn (Shaver Starcross 288)
Settings: for protective effect (in words): applied 5 min before 2% sodium dodecylsulfate, compared to distilled water, NaCl 0.05/0.5/1.0%, CaCl2 0.05/0.5/5%, sorbitol 0.01/0.1/1% by weight; for Response (x) after 30 s / Response (x) after 2 min / Response (x) after 5 min: rating 0 (no response) to 7 (coagulation), 0.2 ml aqueous test substance, 5 min later 0.2 ml 2% sodium dodecylsulfate; for Response (x) after 30 s: read after 30 s; for Response (x) after 2 min: read after 2 min; for Response (x) after 5 min: read after 5 min
Procedure: Evidence of the activity in terms of enhancing the skin's defenses against noxious agents was furnished in a hen's egg test on the chorioallantoic membrane (HET-CAM), an established predictional test for detecting the irritation potency for the skin and mucosa. For testing, eggs of the race “American White Leghorn” ([…] 288) were employed. The eggs were incubated for 9 d (start of incubation=day 1) in a small-size motor incubator having an automatic turning over device and an automatic moisturizing control (type […] GmbH) at 37±1° C. and 65±5% of relative humidity. At day 9, the eggs were transilluminated for detecting fertilization, the non-fertilized eggs were sorted out, the remaining eggs were placed upright with the blunt pole (air bubble) up and incubated for another 24 h without turning over. At day 10, the egg pole was removed with fine scissors and tweezers, and the chorioallantoic membrane exposed. The following items were tested: irritant effect of the combination of active substances and its components protective effect Thus, 0.2 ml each of the aqueous solution of the test substance was applied, and after an interval of 5 min, 0.2 ml of a 2% solution of the irritant sodium dodecylsulfate was applied. The outcome of the response was compared to the effect obtained with water (placebo) according to the following rating: 0 no response 1 hyperemia-slight 2 hyperemia-medium 3 hyperemia-strong 4 hemorrhage-isolated 5 hemorrhage-frequent 6 hemorrhage-massive 7 coagulation […]

Compound | protective effect (in words) | Response (x) after 30 s | Response (x) after 2 min | Response (x) after 5 min
OC[C@@H](O)[C@@H](O)[C@H](O)[C@@H](O)CO [sorbitol] | did not display any protective effects | – | – | –
[Cl-].[Na+] [NaCl, sodium chloride] | did not display any protective effects | – | – | –
NC(N)=O [Comp. 3, urea] | display a skin protective activity | 2.8 | 3.6 | 4.0
[Ca+2].[Cl-].[Cl-] [CaCl2, calcium chloride] | did not display any protective effects | – | – | –
N#C[S-].[Na+] [Comp. 2, NaSCN] | display a skin protective activity | 2.8 | 3.1 | 3.8
